Patent US20250051347A1, “BIFUNCTIONAL CHIMERIC HETEROCYCLIC COMPOUND AND USE THEREOF AS ANDROGEN RECEPTOR DEGRADER” (Hinova Pharmaceuticals, Inc., priority 2021, published 2025)

Key:
[1] = molecular target: T1, androgen receptor (AR) splicing variant AR-v7 (Homo sapiens, UniProt P10275); assay: Degradation activity on androgen receptor splicing variant AR-v7 in 22RV1 cells (ELISA); assay type: cell-based; details: AR-v7 degradation in 22RV1 cells, 48 h
T1 construct: The degradation activity of compounds on AR-v7 in 22RV1 cells; host or cells: 22RV1 cells
T1 sequence (P10275 1-644 isoform P10275-3): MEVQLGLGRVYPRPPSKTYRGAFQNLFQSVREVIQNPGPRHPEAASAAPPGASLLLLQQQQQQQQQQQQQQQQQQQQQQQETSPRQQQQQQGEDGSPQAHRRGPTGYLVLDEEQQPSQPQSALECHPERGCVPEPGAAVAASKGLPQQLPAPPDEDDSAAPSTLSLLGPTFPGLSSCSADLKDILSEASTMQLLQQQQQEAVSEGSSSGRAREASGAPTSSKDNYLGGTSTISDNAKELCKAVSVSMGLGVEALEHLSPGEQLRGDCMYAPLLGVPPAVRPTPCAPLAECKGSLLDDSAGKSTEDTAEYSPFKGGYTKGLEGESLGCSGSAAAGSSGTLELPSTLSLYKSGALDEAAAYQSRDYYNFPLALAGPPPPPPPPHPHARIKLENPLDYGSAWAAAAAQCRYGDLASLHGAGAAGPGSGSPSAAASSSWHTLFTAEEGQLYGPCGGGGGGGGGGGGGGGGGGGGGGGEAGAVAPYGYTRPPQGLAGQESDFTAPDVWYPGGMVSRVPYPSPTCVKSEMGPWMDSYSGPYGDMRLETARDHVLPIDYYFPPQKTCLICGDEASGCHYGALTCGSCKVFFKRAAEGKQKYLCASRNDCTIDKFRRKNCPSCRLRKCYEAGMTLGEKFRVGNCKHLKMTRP

[2] = Pharmacokinetics in mice (plasma exposure after oral administration); assay type: in vivo; details: mouse, ICR mice, oral (i.g.) 3 mg/kg, read-out: After oral administration of 3 mg/kg, mouse plasma exposure AUCinf
Procedure: • LC-20AD high performance liquid chromatography (SHIMADZU, Japan) • API4000 triple quadrupole mass spectrometer (Applied Biosystem, USA) • Phenix Winnolin Pharmacokinetic software (Version 6.3, Certara, USA) • High speed freezing centrifuge (Thermo Fisher Scientific) • Analytical balance (Sartorius, SECURA225D-ICN) • ICR mice (Chengdu Dossy Experimental Animals CO., LTD.)
A suitable amount of drug was accurately weighed, and then the medium (5% DMSO, 15% HS-15, 80% DSW) was added to prepare the solution at a concentration of 0.1 mg/ml (i.v.) and 0.3 mg/ml (i.g.).
18 healthy adult ICR mice were divided into two groups (9 mice for i.v. group; 9 mice for i.g. group), and administered by tail vein or by gavage after fasting overnight (free drinking water); using the satellite blood collection method, 3 animals were collected at each time point, and then 0.1 ml of blood obtained at different time points was anticoagulated with EDTA-K2, centrifuged at 4° C. for 5 min to separate the plasma, and stored at −80° C. for detection. The sampling time points after i.v. administration were 5 min, 15 min, 0.5 h, 1 h, 2 h, 4 h, 8 h, 12 h, and 24 h; while the sampling time points for i.g. group were before administration (0 h) as well as 0.5 h, 1 h, 2 h, 4 h, 6 h, 8 h, 12 h, and 24 h after administration. Then, the drug concentration in plasma was determined by LC/MS/MS.

22RV1 cells = details: Homo sapiens, 22Rv1, 144 h, read-out: 22RV1 IC50 (nM), 22RV1 cells, 6 days culture, CCK-8, OD 450 nm
Procedure: • 22RV1 cell lines (Cobioer, CBP6034) • Penicillin-Streptomycin (Hyclone, Cat. No. SV30010) • Cell counting kit-8 (Signalway Antibody, Cat. No. CP002)
Then, two wells were set for each concentration. 20 μL of the diluted compound solution was added to the cell culture well, and then the plate was gently shaken to mix. In addition, the experiment included 3 negative control wells only containing cells and 3 blank control wells only containing culture medium.

Row | Compound | DC50 ([1]; class symbols) | AUC(0-inf) [2] | DC50 ([1]; numeric values) | IC50 (22RV1 cells)
1 | CC(C)(c1ccc(OCc2ccnc(N3CC4(CNC4)C3)n2)cc1)c1ccc(O[C@H]2C[C@H](Nc3ccc4c(c3)C(=O)N(C3CCC(=O)NC3=O)C4=O)C2)cc1 (some centres unmarked) [Example 82, 5-(((1r,3r)-3-(4-(2-(4-((2-(2,6-diazaspiro[3.3]heptan-2-yl)pyrimidin-4-yl)methoxy)phenyl)propan-2-yl)phenoxy)cyclobutyl)amino)-2-(2,6-dioxopiperidin-3-yl)isoindolin-1,3-dione] | 11 to 100 nM | 100 to 1000 ng·h/mL | – | –
2 | CC(C)(c1ccc(OCc2ccnc(N3CC4(COC4)C3)n2)cc1)c1ccc(O[C@H]2C[C@@H](Nc3cc4c(cc3F)C(=O)N(C3CCC(=O)NC3=O)C4=O)C2)cc1 (some centres unmarked) [Example 90, 5-(((1s,3s)-3-(4-(2-(4-((2-(2-oxa-6-azaspiro[3.3]heptane-6-yl)pyrimidin-4-yl)methoxy)phenyl)propan-2-yl)phenoxy)cyclobutyl)amino)-2-(2,6-dioxopiperidin-3-yl)-6-fluoroisoindolin-1,3-dione] | 11 to 100 nM | 1000 to 5000 ng·h/mL | – | –
3 | CC(C)(c1ccc(OCc2ccnc(N3CC4(COC4)C3)n2)cc1)c1ccc(OC2CN(Cc3ccc4c(c3)C(=O)N(C3CCC(=O)NC3=O)C4=O)C2)cc1 (centres unmarked) [Example 148] | 101 to 1000 nM | 1000 to 5000 ng·h/mL | – | –
4 | CC(C)(c1ccc(Oc2ccnc(-n3nccn3)c2)cc1)c1ccc(O[C@H]2C[C@H](Nc3ccc4c(c3)C(=O)N(C3CCC(=O)NC3=O)C4=O)C2)cc1 (some centres unmarked) [Example 164] | 11 to 100 nM | 5000 to 30000 ng·h/mL | – | –
5 | Cc1nnc(-c2ccc(Oc3ccc(C(C)(C)c4ccc(O[C@H]5C[C@H](Nc6ccc7c(c6)C(=O)N(C6CCC(=O)NC6=O)C7=O)C5)cc4)cc3)cc2)o1 (some centres unmarked) [Example 322, 2-(2,6-dioxopiperidin-3-yl)-5-((1r,3r)-3-(4-(2-(4-(4-(5-methyl-1,3,4-oxadiazol-2-yl)phenoxy)phenyl)propan-2-yl)phenoxy)cyclobutyl)aminoisoindolin-1,3-dione] | < 10 nM | 5000 to 30000 ng·h/mL | – | –
6 | CC(C)(c1ccc(O)cc1)c1ccc(OCCCCCCCCOCCCCNc2ccc3c(c2)C(=O)N(C2CCC(=O)NC2=O)C3=O)cc1 (centres unmarked) [Example 438, 2-(2,6-dioxopiperidin-3-yl)-5-((4-((8-(4-(2-(4-hydroxylphenyl)propan-2-yl)phenoxy)octyl)oxy)butyl)amino)isoindolin-1,3-dione] | – | 5000 to 30000 ng·h/mL | > 2000 nM | –
7 | Cc1nnc(-c2cnc(Oc3ccc(C(C)(C)c4ccc(O[C@H]5C[C@H](Nc6ccc7c(c6)C(=O)N(C6CCC(=O)NC6=O)C7=O)C5)cc4)cc3)nc2)o1 (some centres unmarked) [Example 475, 2-(2,6-dioxopiperidin-3-yl)-5-(((1r,3r)-3-(4-(2-(4-((5-(5-methyl-1,3,4oxadiazol-2-yl)pyrimidin-2-yl)oxy)phenyl)propan-2-yl)phenoxy)cyclobutyl)amino)isoindolin-1,3-dione] | 11 to 100 nM | 5000 to 30000 ng·h/mL | – | –
8 | CC(C)(c1ccc(OCc2ccnc(N3CC4(COC4)C3)n2)cc1)c1ccc(C(=O)NCCNc2ccc3c(c2)C(=O)N(C2CCC(=O)NC2=O)C3=O)cc1 (centres unmarked) [Example 501] | 11 to 100 nM | 1000 to 5000 ng·h/mL | – | –
9 | CC(C)(c1ccc(OCc2ccnc(N3CC4(COC4)C3)n2)cc1)c1ccc(C(=O)Nc2ccc3c(c2)C(=O)N(C2CCC(=O)NC2=O)C3=O)cc1 (centres unmarked) [Example 504, 4-(2-(4-((2-(2-oxa-6-azaspiro[3.3]heptan-6-yl)pyrimidin-4-yl)methoxy)phenyl)propan-2-yl)-N-(2-(2,6-dioxopiperidin-3-yl)-1,3-dioxoisoindolin-5-yl)benzamide] | 101 to 1000 nM | 100 to 1000 ng·h/mL | – | –
10 | Cc1noc(-c2ccc(Oc3ccc(C(C)(C)c4ccc(O[C@H]5C[C@H](Nc6ccc7c(c6)C(=O)N(C6CCC(=O)NC6=O)C7=O)C5)cc4)cc3)cn2)n1 (some centres unmarked) [Example 582] | 11 to 100 nM | 1000 to 5000 ng·h/mL | – | –
11 | CC(O)c1cnc(Oc2ccc(C(C)(C)c3ccc(O[C@H]4C[C@H](Nc5ccc6c(c5)C(=O)N(C5CCC(=O)NC5=O)C6=O)C4)cc3)cc2)cn1 (some centres unmarked) [Example 595] | < 10 nM | – | – | 4 nM
12 | CC(=O)c1cnc(Oc2ccc(C(C)(C)c3ccc(O[C@H]4C[C@H](Nc5ccc6c(c5)C(=O)N(C5CCC(=O)NC5=O)C6=O)C4)cc3)cc2)cn1 (some centres unmarked) [Example 596] | < 10 nM | – | – | 10 nM

Now from value to compound:

Row | DC50 ([1]; class symbols) | AUC(0-inf) [2] | DC50 ([1]; numeric values) | IC50 (22RV1 cells) | Compound
13 | 11 to 100 nM | 5000 to 30000 ng·h/mL | – | – | O=C1CCC(N2C(=O)c3ccc(N[C@H]4C[C@H](Oc5ccc(Oc6ccc(Oc7ncc(-n8nccn8)cn7)cc6)cc5)C4)cc3C2=O)C(=O)N1 (stereo partly drawn) [Example 122, 5-(((trans)-3-(4-(4-((5-(2H-1,2,3-triazol-2-yl)pyrimidin-2-yl)oxy)phenoxy)phenoxy)cyclobutyl)amino)-2-(2,6-dioxopiperidin-3-yl)isoindolin-1,3-dione]
14 | 11 to 100 nM | 5000 to 30000 ng·h/mL | – | – | Cc1nnc(-c2ccnc(Oc3ccc(C(C)(C)c4ccc(O[C@H]5C[C@H](Nc6ccc7c(c6)C(=O)N(C6CCC(=O)NC6=O)C7=O)C5)cc4)cc3)n2)o1 (some centres unmarked) [Example 171]
15 | 11 to 100 nM | 100 to 1000 ng·h/mL | – | – | CC(C)(c1ccc(OCc2ccnc(O[C@@H]3CCNC3)n2)cc1)c1ccc(O[C@H]2C[C@@H](Nc3ccc4c(c3)C(=O)N(C3CCC(=O)NC3=O)C4=O)C2)cc1 (some centres unmarked) [Example 242]
16 | 11 to 100 nM | 1000 to 5000 ng·h/mL | – | – | Cc1noc(-c2cccc(COc3ccc(C(C)(C)c4ccc(O[C@H]5C[C@H](Nc6ccc7c(c6)C(=O)N(C6CCC(=O)NC6=O)C7=O)C5)cc4)cc3)n2)n1 (some centres unmarked) [Example 282]
17 | 11 to 100 nM | 5000 to 30000 ng·h/mL | – | – | Cc1nnc(-c2ccc(Oc3ccc(C(C)(C)c4ccc(O[C@H]5C[C@H](Nc6ccc7c(c6)C(=O)N(C6CCC(=O)NC6=O)C7=O)C5)cc4)cc3)nn2)o1 (some centres unmarked) [Example 330]
18 | 11 to 100 nM | 5000 to 30000 ng·h/mL | – | – | C=CC(c1ccc(Oc2ncc(-n3nccn3)cn2)cc1)c1ccc(O[C@H]2C[C@H](Nc3ccc4c(c3)C(=O)N(C3CCC(=O)NC3=O)C4=O)C2)cc1 (some centres unmarked) [Example 370, 5-(((1r,3r)-3-(4-(1-(4-((5-(2H-1,2,3-triazole-2-yl)pyrimidin-2-yl)oxy)phenyl)allyl)phenoxy)cyclobutyl)amino)-2-(2,6-dioxopiperidin-3-yl)isoindolin-1,3-dione]
19 | – | 100 to 1000 ng·h/mL | – | – | CC(C)(c1ccc(OCc2ccnc(NCC3CNC3)n2)cc1)c1ccc(O[C@H]2C[C@@H](Nc3ccc4c(c3)C(=O)N(C3CCC(=O)NC3=O)C4=O)C2)cc1 (some centres unmarked) [Example 406]
20 | 11 to 100 nM | 5000 to 30000 ng·h/mL | – | – | CC(C)(c1ccc(OCc2cccc(-n3ccnn3)n2)cc1)c1ccc(O[C@H]2C[C@H](Nc3ccc4c(c3)C(=O)N(C3CCC(=O)NC3=O)C4=O)C2)cc1 (some centres unmarked) [Example 415]
21 | 11 to 100 nM | 100 to 1000 ng·h/mL | – | – | CC(C)(c1ccc(OCc2ccnc(-n3cc(F)cn3)n2)cc1)c1ccc(O[C@H]2C[C@@H](Nc3ccc4c(c3)C(=O)N(C3CCC(=O)NC3=O)C4=O)C2)cc1 (some centres unmarked) [Example 460]
22 | 11 to 100 nM | 5000 to 30000 ng·h/mL | – | – | O=C1CCC(N2C(=O)c3ccc(N[C@H]4C[C@H](Oc5ccc(Cc6ccc(Oc7cnc(-n8ccnn8)nc7)cc6)cc5)C4)cc3C2=O)C(=O)N1 (some centres unmarked) [Example 521]
23 | – | 5000 to 30000 ng·h/mL | > 10000 nM | – | CC(=O)c1nccc(COc2ccc(C(C)(C)c3ccc(OC4CN(c5ccc6c(c5)C(=O)N(C5CCC(=O)NC5=O)C6=O)C4)cc3)cc2)n1 (centres unmarked) [Example 558]
24 | < 10 nM | – | – | 11 nM | Cc1nc(-c2cnc(Oc3ccc(C4(c5ccc(O[C@H]6C[C@H](Nc7ccc8c(c7)C(=O)N(C7CCC(=O)NC7=O)C8=O)C6)cc5)CCCC4)cc3)cn2)no1 (some centres unmarked) [Example 601]
